Results: patent US12076304B2, “Compositions comprising 15-HEPE and methods of treating or preventing hematologic disorders, and/or related diseases” (priority 2020, dated 2024)
“Also recorded” adds a separate entry of the source.

Experiments:
[1] = tested on: UUO-induced renal interstitial fibrosis; experiment: UUO mice: kidney hydroxyproline content; format: in vivo; conditions: for Kidney hydroxyproline: n = 8
Experimental: Measurement of Kidney Biochemistry: To quantify kidney hydroxyproline content, frozen left kidney samples were processed by an alkaline-acid hydrolysis method as follows: kidney samples were dissolved in 2 normal (N) sodium hydroxide (NaOH) at 65° C. and autoclaved at 121° C. for 20 minutes. The lysed samples (400 μL) were acid-hydrolyzed with 400 μL of 6N hydrochloride acid (HCl) at 121° C. for 20 minutes, and neutralized with 400 μL of 4N NaOH containing 10 mg/mL of activated carbon. An AC buffer (e.g., 2.2M acetic acid/0.48M citric acid, 400 μL) was added to the samples, followed by centrifugation to collect the supernatant. A standard curve of hydroxyproline was constructed with serial dilutions of trans-4-hydroxy-L-proline (Sigma-Aldrich, USA) starting at 16 μg/mL. The prepared samples and standards (e.g., each 400 μL) were mixed with 400 μL chloramine T solution (Wako Pure Chemical Industries, Japan) and incubated for 25 minutes at room temperature. The samples were then mixed with Ehrlich's solution (e.g., 400 μL) and heated at 65° C. for 20 minutes to develop the color. After samples were cooled on ice and centrifuged to remove precipitates, the optical density of each supernatant was measured at 560 nanometers (nm). The concentrations of hydroxyproline were calculated from the hydroxyproline standard curve. Protein concentrations of kidney samples were determined using a bicinchoninic (BCA) protein assay kit (Thermo Fisher Scientific, USA) and used to normalize the calculated hydroxyproline values. Kidney hydroxyproline contents were expressed as microgram (μg) per mg protein.
Sample Collection: For serum samples, non-fasting blood was collected in serum separate tubes without anticoagulant through direct cardiac puncture and centrifuged at 3,500×g for 4 minutes at 4° C. The supernatant was collected and stored at −80° C. for shipping. For kidney samples, the left kidney was collected and cut into 2 pieces horizontally. […] Paraffin blocks were stored at room temperature for histological analyses. […] The anterior part of left kidney was snap frozen in liquid nitrogen and stored at −80° C. for gene expression assay. The posterior part of left kidney was snap frozen in liquid nitrogen and stored at −80° C. for kidney biochemistry.

TGF-β mRNA = experiment: BDL mice liver quantitative RT-PCR, TGF-β; format: in vivo; conditions: for TGF-β relative mRNA expression level: BDL mice liver, normalized to 36B4, Sham 1.00, mean ± SD
Experimental: Quantitative RT-PCR: Total ribonucleic acid (RNA) was extracted from liver samples using RNAiso (Takara Bio, Japan) according to the manufacturer's instructions. One μg of RNA was reverse-transcribed using a reaction mixture containing 4.4 mM magnesium chloride (MgCl2) (F. Hoffmann-La Roche, Switzerland), 40 U RNase inhibitor (Toyobo, Japan), 0.5 mM dNTP (Promega, USA), 6.28 μM random hexamer (Promega), 5× first strand buffer (Promega), 10 mM dithiothreitol (Invitrogen, USA) and 200 U MMLV-RT (Invitrogen) in a final volume of 20 μL. The reaction was carried out for 1 hour at 37° C., followed by 5 minutes at 99° C. Real-time PCR was performed using real-time PCR DICE and TB Green™ Premix Ex Taq™ II (Takara Bio). To calculate the relative mRNA expression level, the expression of each gene (α-SMA, TIMP-1, TGF-β and Collagen Type 1) was normalized to that of reference gene 36B4 (gene symbol: Rplp0). Information regarding the PCR-primer sets and the plate layout are described in Tables 8 and 9.

NAFLD patients [2] = experiment: Phase IIa study in NAFLD patients: adverse events; format: in vivo, human
Text: (§1) The study was planned to include 96 evaluable patients with 32 patients randomized per treatment group.

[3] = tested on: cholestasis induced by BDL; experiment: BDL mice: Sirius red staining of liver sections, fibrosis area; format: in vivo; conditions: for Sirius red-positive area: BDL mice liver, Day 14, mean ± SD, n = 8; for fibrosis area compared with the Vehicle group: BDL mice
Experimental: […]: To visualize collagen deposition, Bouin's fixed liver sections were stained using picro-Sirius red solution (Waldeck, Germany). For quantitative analysis of fibrosis area, bright field images of Sirius red-stained sections were captured using a digital camera (DFC295; Leica, Germany) at 100-fold magnification, and the positive areas in 5 fields/section were measured using ImageJ software (National Institute of Health, USA).

NAFLD patients [4] = experiment: Phase IIa study in NAFLD patients: ALP and liver fibrosis markers; format: in vivo, human; conditions: 2 g
Experimental: as §1
Clinical Laboratory Safety Tests: Safety tests were performed for hematology, serum biochemistry, coagulation, lipid profile, and urinalysis: Blood and urine samples were taken as per the Study Flow Chart in Table 19 for routine hematology, serum biochemistry, coagulation and urinalysis tests, along with a Lipid Profile. All samples were analyzed in the central laboratory. All subjects were fasted for a minimum of 8 hours prior to blood sampling. […]

[5] = 50 mg/kg PO QD Day 0-13, Day 14, mean ± SD

CCCCCC(O)/C=C/C=C\C/C=C\CCCCCCC(=O)O (centres unmarked) [DS109, 15-HETrE] was tested, and the Kidney hydroxyproline ([1]; 5 mg/kg PO QD Day 0-13, Day 14, mean ± SD) was 9.94 ± 2.02 μg/mg total protein, the “kidney hydroxyproline contents compared with the Vehicle group” value ([1]; 5 mg/kg PO QD Day 0-13, significance p<0.05) was “significant decreases” and the Kidney hydroxyproline [1, 5] was 13.94 ± 6.44 μg/mg total protein. The “kidney hydroxyproline contents compared with the Vehicle group” value ([1]; 50 mg/kg PO QD Day 0-13, significance p<0.05) was “no significant difference”, the Kidney hydroxyproline ([1]; 250 mg/kg PO QD Day 0-13, Day 14, mean ± SD) was 8.30 ± 1.04 μg/mg total protein and the “kidney hydroxyproline contents compared with the Vehicle group” value ([1]; 250 mg/kg PO QD Day 0-13, significance p<0.05) was “significant decreases”.

15-HEPE [DS102] was tested, and the “TGF-β relative mRNA expression level” value (TGF-β mRNA; 50 mg/kg PO QD Day 0-13) was 1.48 ± 0.48, the “TGF-β relative mRNA expression level” value (TGF-β mRNA; 250 mg/kg PO QD Day 0-13) was 1.50 ± 0.44 and the “TGF-β relative mRNA expression level” value (TGF-β mRNA; 500 mg/kg PO QD Day 0-13) was 1.00 ± 0.23. The “TGF-β mRNA expression level compared with the Vehicle group” value (TGF-β mRNA; BDL mice, 500 mg/kg PO QD Day 0-13) was “significant decrease”, the “TGF-β mRNA expression level, Vehicle group vs the DS102 treatment groups” value (TGF-β mRNA; BDL mice, DS102 treatment groups as a whole) was “no significant differences” and the Kidney hydroxyproline [1, 5] was 8.47 ± 2.08 μg/mg total protein. The “kidney hydroxyproline contents compared with the Vehicle group” value ([1]; 50 mg/kg PO QD Day 0-13, significance p<0.05, 50 mg/kg) was “significant decrease”, the Kidney hydroxyproline ([1]; 500 mg/kg PO QD Day 0-13, Day 14, mean ± SD) was 8.59 ± 1.99 μg/mg total protein and the “kidney hydroxyproline contents compared with the Vehicle group” value ([1]; 500 mg/kg PO QD Day 0-13, significance p<0.05) was “significant decreases”. For the same compound, the “Death, patients n” value (NAFLD patients [2]; 1 g (n = 32)) was 0, the “Patients with ≥1 AE related to study drug, %” value (NAFLD patients [2]; 1 g (n = 32)) was “(6.3) %” and the “Patients with ≥1 AE, %” value (NAFLD patients [2]; 1 g (n = 32)) was “(59.4) %”. The “Death, patients n” value (NAFLD patients [2]; 2 g (n = 30)) was 0, the “Patients with ≥1 AE related to study drug, %” value (NAFLD patients [2]; 2 g (n = 30)) was “(10.0) %” and the “Patients with ≥1 AE, %” value (NAFLD patients [2]; 2 g (n = 30)) was “(50.0) %”. The “Patients with ≥1 SAE, %” value (NAFLD patients [2]; 2 g (n = 30)) was “(3.3) %”, the “drug related serious adverse events (SAEs)” value (NAFLD patients [2]; NAFLD patients, 1 g or 2 g per day, 16 weeks) was “no drug related serious adverse events” and the safety and tolerance (NAFLD patients [2]; NAFLD patients, 1 g or 2 g per day, 16 weeks, compared to placebo) was “safe and well tolerated”. The Sirius red-positive area ([3]; 50 mg/kg PO QD Day 0-13) was 1.70 ± 0.63%, the Sirius red-positive area ([3]; 250 mg/kg PO QD Day 0-13) was 1.06 ± 0.48% and the Sirius red-positive area ([3]; 500 mg/kg PO QD Day 0-13) was 1.42 ± 0.60%. For the same compound, the “fibrosis area compared with the Vehicle group” value ([3]; 50 mg/kg PO QD Day 0-13) was “no significant difference”, the “fibrosis area compared with the Vehicle group” value ([3]; 250 mg/kg PO QD Day 0-13) was “significant decrease” and the “fibrosis area compared with the Vehicle group” value ([3]; 500 mg/kg PO QD Day 0-13, 500 mg/kg) was “tended to decrease; also recorded: trend approaching significance”. The “alkaline phosphate (ALP)” value (NAFLD patients [4]) was “reduced” and the “multiple markers for liver fibrosis” value (NAFLD patients [4]) was “reduced”.
